Measured values taken from patent publication EP4745138A1, “THIO-GLUTARIMIDO ISOINDOLINONE DERIVATIVE, BIFUNCTIONAL PROTEIN DEGRADER CONTAINING SAME, AND USES THEREOF” (Gluetacs Therapeutics (Shanghai) Co., Ltd., priority 2023, dated 2025).
Like-named read-outs stand apart in the source and are kept apart here.

Experiments:
JEKO-1 = test: Tumor cell proliferation inhibition (CellTiter-Meiluncell Luminescent Cell Viability Assay); format: cell-based; settings: Homo sapiens, 96 hours, Table I-6, IRAK4 inhibitors; for inhibition at 0.01 µM: 10 nM, read-out: Inhibition Rate at 10 nM (%); for inhibition at 0.5 µM: 500 nM, read-out: Inhibition Rate at 500 nM (%)
Experimental: (§1) The tumor cells used herein were cultured in a cell culture medium listed in table 3 at 37°C in an incubator with 5% CO2. Prior to experimentation, all cell lines used were correctly identified by STR profiling, and tested negative for mycoplasma contamination using a mycoplasma detection kit through routine screenings. Table 3. Tumor cells and cell culture medium used in the present disclosure
(§2) The IC50 values of the compounds of the present disclosure (including the compounds in Table 1, Table 2, and Examples) were determined using the CellTiter-Meiluncell Luminescent Cell Viability Assay Kit from Dalian Meilun Biotech Co., Ltd. The detailed procedure is as follows: Tumor cells were seeded in 96-well cell culture plates at the densities specified in Table 4. On the following day, the test compounds of the present disclosure were subjected to serial dilution. […] Subsequently, 0.5 µL of the test compound dilution was transferred into the 96-well plate containing the cells, with each well containing 100 µL of cell culture medium. […] Into the 96-well plate, the diluted test compounds and corresponding detection reagents were added, resulting in final test compound concentrations of 500 nM and 10 nM, respectively. The experimental procedure is described below using the diluted 2 µM test compound as an example.
(§3) 0.5 µL of the aforementioned diluted compound of the present disclosure (including the compounds in Table 1, Table 2, and Examples) was added to the seeded cells in 100 µL of medium, yielding a final test compound concentration of 10 nM. After the cells were treated with the compounds of the present disclosure for a specified period, the cell viability assay reagent was added to the culture medium according to the kit's instructions to determine cell viability. […] All controls were treated using the same procedure as the compounds of the present disclosure. […] Seeding protocol and treatment time for tumor cells

MM.1S = test: as above; format: cell-based; settings: Homo sapiens, MM1.S; for inhibition at 0.01 µM: read-out: Inhibition Rate at 10 nM (%); for inhibition at 0.5 µM: read-out: Inhibition Rate at 500 nM (%)
Experimental: as §1, §2, §3

MV-4-11 = test: as above; format: cell-based; settings: Homo sapiens, 96 hours; for inhibition at 0.01 µM: MV4-11, 10 nM, read-out: Inhibition Rate at 10 nM (%); for inhibition at 0.5 µM: MV4-11, 500 nM, read-out: Inhibition Rate at 500 nM (%)
Experimental: as §1, §2, §3

SW620 = test: as above; format: cell-based; settings: Homo sapiens, 96 hours; for inhibition at 0.01 µM: SW-620, 10 nM, read-out: Inhibition Rate at 10 nM (%); for inhibition at 0.5 µM: SW-620, 500 nM, read-out: Inhibition Rate at 500 nM (%)
Experimental: as §1, §2, §3

[1] = target: T1, human Cereblon WT GST-tagged protein (Homo sapiens, UniProt Q96SW2); test: CRBN-binding affinity, HTRF (CEREBLON BINDING kit); settings: for inhibition at 0.5 µM: read-out: Inhibition Rate at 0.5 µM (%); for inhibition at 2 µM: read-out: Inhibition Rate at 2 µM (%)
T1 construct: purchased CISBIO 64BDCRBNPEH
Procedure, shortened: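 HTRF competition against a thalidomide-red probe using GST-tagged Cereblon and Eu-labelled anti-GST antibody. Test concentrations (final): 2 µM and 0.5 µM in diluent #9 (1X); blank controls lack compound and protein, containing PROTAC binding buffer.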

MCF-7 = test: Tumor cell proliferation inhibition (CellTiter-Meiluncell Luminescent Cell Viability Assay); format: cell-based; settings: Homo sapiens, 96 hours, Table I-2, ALK inhibitors; for inhibition at 0.01 µM: MCF7, 10 nM, read-out: Inhibition Rate at 10 nM (%); for inhibition at 0.5 µM: MCF7, 500 nM, read-out: Inhibition Rate at 500 nM (%)
Experimental: as §1, §2, §3

RPMI-8226 = test: as above; format: cell-based; settings: Homo sapiens, 96 hours, Table I-10, BCR-ABL inhibitors; for inhibition at 0.01 µM: 10 nM, read-out: Inhibition Rate at 10 nM (%); for inhibition at 0.5 µM: 500 nM, read-out: Inhibition Rate at 500 nM (%)
Experimental: as §1, §2, §3

[2] = MM.1S, 10 nM, 96 hours, Table I-6, IRAK4 inhibitors
[3] = MM.1S, 500 nM, 96 hours, Table I-6, IRAK4 inhibitors
[4] = MM.1S, 10 nM, 96 hours, Table I-2, ALK inhibitors
[5] = MM.1S, 500 nM, 96 hours, Table I-2, ALK inhibitors

T1 sequence (Q96SW2 whole entry): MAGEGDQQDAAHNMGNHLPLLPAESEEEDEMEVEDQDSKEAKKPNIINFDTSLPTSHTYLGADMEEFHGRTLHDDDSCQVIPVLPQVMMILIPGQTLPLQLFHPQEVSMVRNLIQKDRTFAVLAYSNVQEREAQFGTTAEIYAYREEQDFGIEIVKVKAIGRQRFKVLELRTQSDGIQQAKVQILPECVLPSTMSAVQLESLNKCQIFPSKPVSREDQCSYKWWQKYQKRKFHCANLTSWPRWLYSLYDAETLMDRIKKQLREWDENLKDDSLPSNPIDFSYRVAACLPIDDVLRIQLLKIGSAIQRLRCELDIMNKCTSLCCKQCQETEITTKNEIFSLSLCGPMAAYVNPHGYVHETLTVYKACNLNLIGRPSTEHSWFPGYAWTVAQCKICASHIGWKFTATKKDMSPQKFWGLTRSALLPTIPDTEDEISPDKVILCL

| inhibition at 0.5 µM [1] | inhibition at 2 µM [1] | SMILES | inhibition at 0.01 µM (JEKO-1) | inhibition at 0.5 µM (JEKO-1) | inhibition at 0.01 µM (MM.1S; [2]) | inhibition at 0.5 µM (MM.1S; [3]) | inhibition at 0.01 µM (MV-4-11; Table I-6, IRAK4 inhibitors) | inhibition at 0.5 µM (MV-4-11; Table I-6, IRAK4 inhibitors) | inhibition at 0.01 µM (SW620; Table I-6, IRAK4 inhibitors) | inhibition at 0.5 µM (SW620; Table I-6, IRAK4 inhibitors) | also measured |
| --- | --- | --- | --- | --- | --- | --- | --- | --- | --- | --- | --- |
| 60 to 80% | 80 to 100% | O=C1CCC(N2Cc3cc(CN4CCC(n5cc(NC(=O)c6cnn7ccc(N8C[C@H]9C[C@@H]8CO9)nc67)c(C(F)F)n5)CC4)ccc3C2=S)C(=O)N1 (stereo partly drawn) [GT-05321, 5-((1R,4R)-2-oxa-5-azabicyclo[2.2.1]heptan-5-yl)-N-(3-(difluoromethyl)-1-(1-((2-(2,6-dioxopiperidin-3-yl)-1-thioxoisoindolin-5-yl)methyl)piperidin-4-yl)-1H-pyrazol-4-yl)pyrazolo[1,5-a]pyrimidine-3-carboxamide] | 5 to 10% | 40 to 50% | 30 to 40% | 80 to 100% | 40 to 50% | 80 to 100% | 30 to 40% | 70 to 80% | – |
| 80 to 100% | 80 to 100% | O=C1CCC(N2Cc3cc(CN4CCC(n5cc(NC(=O)c6cnn7ccc(N8CCOCC8)nc67)c(C(F)F)n5)CC4)ccc3C2=S)C(=O)N1 (stereo not shown) [GT-05098, N-(3-(difluoromethyl)-1-(1-((2-(2,6-dioxopiperidin-3-yl)-1-thioxoisoindolin-5-yl)methyl)piperidin-4-yl)-1H-pyrazol-4-yl)-5-morpholinopyrazolo[1,5-a]pyrimidine-3-carboxamide] | 5 to 10% | 20 to 30% | 20 to 30% | 80 to 100% | 20 to 30% | 80 to 100% | 10 to 20% | 40 to 50% | – |
| – | – | CC[C@@H]1[C@H](F)C(=O)N[C@@H]1COc1nccc2cc(C(N)=O)c(OC)cc12 [PF06650833, PF-06650833, reference compound] | 10 to 20% | 20 to 30% | – | – | 20 to 30% | 20 to 30% | 10 to 20% | 10 to 20% | inhibition at 0.01 µM (MM.1S; 96 h): 0 to 5%; inhibition at 0.5 µM (MM.1S; 96 h): 0 to 5% |
| 40 to 53% | 53 to 60% | Cc1cc(Nc2ncc(Cl)c(Nc3ccccc3S(=O)(=O)C(C)C)n2)c(OC(C)C)cc1C1CCN(Cc2ccc3c(c2)CN(C2CCC(=O)NC2=O)C3=S)CC1 (stereo not shown) [GT-08674, 3-(5-((4-(4-((5-chloro-4-((2-(isopropylsulfonyl)pheny 1)amino)pyrimidin-2-yl)amino)-5-isopropoxy-2-methylphenyl)piperidin-1-yl)methyl)-1-thioxoisoindolin-2-yl)piperidine-2,6-dione] | – | – | – | – | – | – | – | – | inhibition at 0.01 µM (MCF-7): 30 to 40%; inhibition at 0.5 µM (MCF-7): 60 to 70%; inhibition at 0.01 µM (MM.1S; [4]): 30 to 40%; inhibition at 0.5 µM (MM.1S; [5]): 80 to 100%; inhibition at 0.01 µM (MV-4-11; Table I-2, ALK inhibitors): 0 to 10%; inhibition at 0.5 µM (MV-4-11; Table I-2, ALK inhibitors): 30 to 40% |
| – | – | Cc1ccc(NC(=O)c2ccc(CN3CCN(C)CC3)cc2)cc1Nc1nccc(-c2cccnc2)n1 [imatinib] | – | – | – | – | – | – | – | – | inhibition at 0.01 µM (MV-4-11; Table I-10, BCR-ABL inhibitors): 0 to 5%; inhibition at 0.5 µM (MV-4-11; Table I-10, BCR-ABL inhibitors): 0 to 5%; inhibition at 0.01 µM (RPMI-8226): 5 to 10%; inhibition at 0.5 µM (RPMI-8226): 10 to 20%; inhibition at 0.01 µM (SW620; Table I-10, BCR-ABL inhibitors): 5 to 10%; inhibition at 0.5 µM (SW620; Table I-10, BCR-ABL inhibitors): 10 to 20% |
| 30 to 40% | 60 to 80% | O=C1CCC(N2Cc3cc(CN4CCC(n5cc(NC(=O)c6coc(-c7ccnc(NCC8CC8)c7)n6)c(C(F)F)n5)CC4)ccc3C2=S)C(=O)N1 (stereo not shown) [GT-05286, 2-(2-((cyclopropylmethyl)amino)pyridin-4-yl)-N-(3-(difluoromethyl)-1-(1-((2-(2,6-dioxopiperidin-3-yl)-1-thioxoisoindolin-5-yl)methyl)piperidin-4-yl)-1H-pyrazol-4-yl)oxazole-4-carboxamide] | 10 to 20% | 80 to 100% | 50 to 60% | 80 to 100% | 80 to 100% | 80 to 100% | 60 to 70% | 70 to 80% | – |
| 30 to 40% | 60 to 80% | Cc1ccc(C(=O)Nc2ccc(CN3CCN(Cc4cccc5c4CN(C4CCC(=O)NC4=O)C5=S)CC3)c(C(F)(F)F)c2)cc1C#Cc1cnc2cccnn12 (stereo not shown) [GT-08773, N-(4-((4-((2-(2,6-dioxopiperidin-3-yl)-1-thioxoisoindolin-4-yl)methyl)piperazin-1-yl)methyl)-3-(trifluoromethyl)phenyl)-3-(imidazo[1,2-b]pyridazin-3-ylethynyl)-4-methylbenzamide] | – | – | – | – | – | – | – | – | inhibition at 0.01 µM (MM.1S; MM.1S, 10 nM, 96 hours, Table I-10, BCR-ABL inhibitors): 10 to 20%; inhibition at 0.5 µM (MM.1S; MM.1S, 500 nM, 96 hours, Table I-10, BCR-ABL inhibitors): 80 to 100%; inhibition at 0.01 µM (MV-4-11; Table I-10, BCR-ABL inhibitors): 30 to 40%; inhibition at 0.5 µM (MV-4-11; Table I-10, BCR-ABL inhibitors): 80 to 100%; inhibition at 0.01 µM (RPMI-8226): 5 to 10%; inhibition at 0.5 µM (RPMI-8226): 60 to 70%; inhibition at 0.01 µM (SW620; Table I-10, BCR-ABL inhibitors): 0 to 5%; inhibition at 0.5 µM (SW620; Table I-10, BCR-ABL inhibitors): 70 to 80% |
| 53 to 60% | 80 to 100% | COc1cc(N2CCN(Cc3cccc4c3CN(C3CCC(=O)NC3=O)C4=S)CC2)ccc1Nc1ncc(Cl)c(Nc2ccccc2P(C)(C)=O)n1 (stereo not shown) [GT-08677, 3-(4-((4-(4-((5-chloro-4-((2-(dimethylphosphoryl)phenyl)amino)pyrimidin-2-yl)amino)-3-methoxyphenyl)piperazin-1-yl)methyl)-1-thioxoisoindolin-2-yl)piperidine-2,6-dione] | – | – | – | – | – | – | – | – | inhibition at 0.01 µM (MCF-7): -5 to 0%; inhibition at 0.5 µM (MCF-7): 30 to 40%; inhibition at 0.01 µM (MM.1S; [4]): 10 to 20%; inhibition at 0.5 µM (MM.1S; [5]): 20 to 30%; inhibition at 0.01 µM (MV-4-11; Table I-2, ALK inhibitors): 0 to 10%; inhibition at 0.5 µM (MV-4-11; Table I-2, ALK inhibitors): 60 to 70% |
